According to patent US10577364B2, “Crystalline form of fused pyridine derivative's maleate and uses thereof” (priority 2015, dated 2020):

How the values were obtained:
[1] = Kinetic solubility in H2O at RT; conditions: for pH / Form Change: H2O, RT; for Form Change: residual solids by XRPD
Experimental: (§1) Kinetic solubility of the Crystalline Form of Formula I and N-(4-(2,3-dihydro-1H-pyrrolo[2,3-b]pyridin-4-yloxy)-3-fluorophenyl)-5-(4-fluorophenyl)-4-oxo-1,4-dihydropyridine-3-carboxamide (the Compound of Formula II) was studied in H2O at RT. After stirring approximate 4 mg solid in per 2 mL H2O at RT for a set amount of time, 0.6 mL suspension was centrifuged with the residual solids analyzed by XRPD and the concentrations in supernatants measured by high performance liquid chromatography (HPLC).

[2] = Pharmacokinetic study, oral administration to fasted SD rats; conditions: for AUC(0-inf) / AUC(0-t) / Cmax / Tmax / half-life: SD, rat, plasma, po, 50 mg/kg
Source text: (§2) The Compound of Formula II and the Crystalline Form of Formula I were ground to fine particles. The material content (purity) was not less than 99.0%. Sodium carboxymethyl cellulose was medical supply graded.
(§3) Experimental animals: SD rats were divided to a Compound of Formula II group and a Crystalline Form of Formula I group, with both groups consisting of three males and three females.
(§4) Pharmaceutical preparation: each compound was formulated in 0.5% (w/v) aqueous sodium carboxymethyl cellulose and the final concentration of each compound was 10 mg/mL.
(§5) Administration and sample collection: each suspension was administered orally to fasted SD rats at a dose equivalent to 50 mg/kg the Compound of Formula II in a dose volume of 5 mL/kg. The blood samples were collected in EDTA-K pre anticoagulant tubes just before dosing (0 h) and at 0.5, 1, 1.5, 2, 4, 6, 8 and 24 hrs after dosing. The plasma from these samples was separated by centrifugation at 3000 rpm for 10 min at 4° C. The plasma samples were collected and stored at −80° C. until analysis.
(§6) Samples were analyzed by HPLC. Chemical ingredients were separated on a C18 DIKMA Platisil column (250×4.6 mm, 5 μm). An Isocratic mobile phase system consisting of acetonitrile-water (55:45) with 0.02 mol/L of sodium dihydrogen phosphate (adjusted pH to 6.0 by using sodium hydroxide solution) employed for sample analysis. The sample injection volume was 20 μL and the detection wavelength was 302 nm.

[3] = Thermodynamic stability, stress test storage, XRPD; assay type: physicochemical; conditions: 40° C.±2° C./RH75%±5%, aluminum-plastic composite film bag, 0 m, 1 m, 2 ms, 3 ms, or 6 ms
Experimental: About 500 g of the Crystalline Form of Formula I was placed into a bag of aluminum-plastic composite film, and the bag was stored under stress test conditions of 40° C.±2° C./RH75%±5% for 0 m, 1 m, 2 ms, 3 ms, or 6 ms.

[4] = Long term stability storage, XRPD; assay type: physicochemical; conditions: 25° C.±2° C./RH60%±10%, aluminum-plastic composite film bag, 0 m to 36 ms
Experimental: About 500 g of the Crystalline Form of Formula I was placed into a bag of aluminum-plastic composite film, and the bag was stored under conditions of 25° C.±2° C./RH60%±10% for 0 m, 3 ms, 6 ms, 9 ms, 12 ms, 18 ms, 24 ms, or 36 ms.

physchem = conditions: water, thermodynamic from solid
Experimental: as §1

in vivo = conditions: SD, rat, po, 50 mg/kg
Source text: as §2, §3, §4, §5, §6

[5] = water, thermodynamic from solid

Q: Which pH ([1]; 1 h) does the source give for `O=C(Nc1ccc(Oc2ccnc3c2CCN3)c(F)c1)c1c[nH]cc(-c2ccc(F)cc2)c1=O` [The Compound of Formula II, N-(4-(2,3-dihydro-1H-pyrrolo[2,3-b]pyridin-4-yloxy)-3-fluorophenyl)-5-(4-fluorophenyl)-4-oxo-1,4-dihydropyridine-3-carboxamide] here?
A: Its pH is 7.2.

Q: And the “Form Change” value ([1]; 1 h)?
A: Its value is “No”.

Q: What about the pH ([1]; 4 hrs) of the same compound?
A: The pH was 7.3.

Q: And the “Form Change” value ([1]; 4 hrs)?
A: Its value is “No”.

Q: What about the pH ([1]; 24 hrs) of the same compound?
A: The pH was 7.3.

Q: What about the “Form Change” value ([1]; 24 hrs) of the same compound?
A: Its value is “No”.

Q: What about the solubility kinetic at 1 h [1, 5] of the same compound?
A: The solubility kinetic at 1 h was 0.8 µg/mL.

Q: And the solubility kinetic at 4 h [1, 5]?
A: The solubility kinetic at 4 h was 1.1 µg/mL.

Q: What about the solubility kinetic at 24 h [1, 5] of the same compound?
A: The solubility kinetic at 24 h was 0.5 µg/mL.

Q: What about the AUC(0-inf) ([2]; female) of the same compound?
A: Its AUC(0-inf) is 18200 ± 4600 ng·h/mL.

Q: What about the AUC(0-t) ([2]; female) of the same compound?
A: The AUC(0-t) was 9700 ± 6300 ng·h/mL.

Q: What about the Cmax ([2]; female) of the same compound?
A: The Cmax was 1900 ± 1100 ng/mL.

Q: What about the Tmax ([2]; female) of the same compound?
A: The Tmax was 6 ± 2 h.

Q: And the half-life ([2]; female)?
A: Its half-life is 4.7 ± 3.7 h.

Q: What about the AUC(0-inf) ([2]; male) of the same compound?
A: Its AUC(0-inf) is 17100 ± 7000 ng·h/mL.

Q: And the AUC(0-t) ([2]; male)?
A: The AUC(0-t) was 10100 ± 2900 ng·h/mL.

Q: What about the Cmax ([2]; male) of the same compound?
A: The Cmax was 2200 ± 600 ng/mL.

Q: What about the Tmax ([2]; male) of the same compound?
A: Its Tmax is 4.5 ± 2.6 h.

Q: What about the half-life ([2]; male) of the same compound?
A: The half-life was 6.4 ± 2.6 h.

Q: Which “Crystalline Form determined by XRPD after storage (thermodynamic stability)” value [3] does the source give for `O=C(Nc1ccc(Oc2ccnc3c2CCN3)c(F)c1)c1c[nH]cc(-c2ccc(F)cc2)c1=O.O=C(O)/C=C\C(=O)O` [The Crystalline Form of Formula I, N-(4-(2,3-dihydro-1H-pyrrolo[2,3-b]pyridin-4-yloxy)-3-fluorophenyl)-5-(4-fluorophenyl)-4-oxo-1,4-dihydropyridine-3-carboxamide maleate] here?
A: Its value is “purely the Crystalline Form of formula I”.

Q: What about the pH ([1]; 1 h) of the same compound?
A: Its pH is 4.3.

Q: What about the “Form Change” value ([1]; 1 h) of the same compound?
A: The value was “No”.

Q: And the pH ([1]; 4 hrs)?
A: Its pH is 4.1.

Q: What about the “Form Change” value ([1]; 4 hrs) of the same compound?
A: Its value is “No”.

Q: And the pH ([1]; 24 hrs)?
A: Its pH is 3.8.

Q: What about the “Form Change” value ([1]; 24 hrs) of the same compound?
A: The value was “No”.

Q: What about the “Absorption compared with the Compound of Formula II” value ([2]; SD rats, oral, dose equivalent to 50 mg/kg the Compound of Formula II) of the same compound?
A: Its value is “higher absorption than the Compound of Formula II”.

Q: What about the “Crystalline Form determined by XRPD after storage (long term stability)” value [4] of the same compound?
A: Its value is “purely the Crystalline Form of formula I”.

Q: And the solubility kinetic at 1 h (physchem)?
A: Its solubility kinetic at 1 h is 59 µg/mL.

Q: And the solubility kinetic at 4 h (physchem)?
A: Its solubility kinetic at 4 h is 47.8 µg/mL.

Q: What about the solubility kinetic at 24 h (physchem) of the same compound?
A: The solubility kinetic at 24 h was 98.3 µg/mL.

Q: And the AUC(0-inf) (in vivo; female)?
A: Its AUC(0-inf) is 49300 ± 22200 ng·h/mL.

Q: And the AUC(0-t) (in vivo; female)?
A: The AUC(0-t) was 46400 ± 21600 ng·h/mL.

Q: And the Cmax (in vivo; female)?
A: Its Cmax is 7500 ± 700 ng/mL.

Q: And the Tmax (in vivo; female)?
A: Its Tmax is 2 h.

Q: What about the half-life (in vivo; female) of the same compound?
A: Its half-life is 3.7 ± 2.8 h.

Q: And the AUC(0-inf) (in vivo; male)?
A: The AUC(0-inf) was 17000 ± 6100 ng·h/mL.

Q: What about the AUC(0-t) (in vivo; male) of the same compound?
A: Its AUC(0-t) is 15900 ± 5100 ng·h/mL.

Q: And the Cmax (in vivo; male)?
A: Its Cmax is 3900 ± 700 ng/mL.

Q: What about the Tmax (in vivo; male) of the same compound?
A: Its Tmax is 2.7 ± 1.2 h.

Q: And the half-life (in vivo; male)?
A: Its half-life is 1.7 ± 0.9 h.
